This is an account of results in ChEMBL document CHEMBL4627399, “Synthesis and Structure-Activity Relationships of 5'-Aryl-14-alkoxypyridomorphinans: Identification of a μ Opioid Receptor Agonist/δ Opioid Receptor Antagonist Ligand with Systemic Antinociceptive Activity and Diminished Opioid Side Effects” (J Med Chem, 2020).

What is called Ki is the dissociation constant of the complex between target and ligand, obtained from inhibition or displacement. High values mean a looser hold on the target, low ones a stronger hold on the target. As a reminder, the EC50 is the concentration at which the effect is half-maximal. The IC50 is the concentration needed to halve the response being measured.

Activity calls are given as the source filed them. The rule behind the calls is not given here.

For data set [1], the target named is T1, Mu-type opioid receptor (Homo sapiens, UniProt P35372). In words: biochemical. The format is cell-based, CHO.
Data set [2] can be described thus: Stability in human liver microsomes at 1 uM measured up to 60 mins by LC-MS/MS analysis. It counts as ADME, Microsome. The conditions noted are these: 1 h. (Microsomes from liver hold many membrane-bound enzymes, among them those of drug oxidation.)
For data set [3], the target named is T2, Kappa-type opioid receptor (Homo sapiens, UniProt P41145). In words: Agonist activity at human kappa opioid receptor expressed in CHO cell membranes incubated for 1 hr by [35S]GTPgammaS binding assay. It counts as functional. The conditions noted are these: cho.
Data set [4] concerns the target T2, Kappa-type opioid receptor. In words: Agonist activity at human kappa opioid receptor expressed in CHO cell membranes assessed as stimulation of [35S]GTPgammaS binding incubated for 1 hr relative to […]. The format is functional. (Binding of GTPγS marks nucleotide exchange on a G protein.)
Data set [5] has as its target T2, Kappa-type opioid receptor. In words: Displacement of [3H]-diprenorphine from human kappa opioid receptor expressed in CHO cell membranes incubated for 1 hr by competition radioligand binding assay.
Data set [6] deals with T3, Delta-type opioid receptor (Homo sapiens, UniProt P41143). In words: Displacement of [3H]-diprenorphine from human delta opioid receptor expressed in CHO cell membranes incubated for 1 hr by competition radioligand binding assay. A general note: Loss of bound radioactivity is the signal in a displacement assay; it reports binding, not function.
Data set [7] has as its target T1, Mu-type opioid receptor. In words: biochemical.
The next data set has as its system Mus musculus. In words: Antinociceptive activity in iv dosed CD-1 mouse measured after 15 mins by warm water tail-flick assay. It counts as functional, organism-based.
For data set [8], the target named is T3, Delta-type opioid receptor. In words: Antagonist activity at human delta opioid receptor expressed in CHO cell membranes assessed as reduction in SNC80-induced [35S]GTPgammaS binding preincubated for 5 mins followed by SNC80 addition and measured after 1 hr. The format is functional.
Data set [9] addresses T1, Mu-type opioid receptor. Particulars: cho.
The target of data set [10] is T1, Mu-type opioid receptor. In words: Agonist activity at human mu opioid receptor expressed in CHO cell membranes assessed as stimulation of [35S]GTPgammaS binding incubated for 1 hr relative to DAMGO. It counts as functional.

As for `Cc1nnc(-c2cnc3c(c2)C[C@@]2(OCCCc4ccccc4)[C@H]4Cc5ccc(O)c6c5[C@@]2(CCN4CC2CC2)[C@H]3O6)o1`, the Ki at Mu-type opioid receptor [1] amounted to 3.18 nM; in data set [5] it was 14.8 nM; in data set [6], 8.12 nM. Besides, the Stability result in data set [2] is “Stable”. For the same molecule, the EC50 result was “Not Active” in data set [3] and 17.5 nM on Mu-type opioid receptor [7]. In data set [4], the Emax result was “inactive”. Moreover, in the data set on Mus musculus, the Activity entry was “Dose-dependent effect”. Further, the IC50 in [8] is < 0.17 nM.

On to `Oc1ccc2c3c1O[C@H]1c4ncc(-c5ccc(Cl)cc5)cc4C[C@@]4(OCc5ccc6ccccc6n5)[C@@H](C2)N(CC2CC2)CC[C@]314`, for which the inhibitory constant (Ki) on Mu-type opioid receptor [1] amounted to 799 nM; in data set [5], 31 nM; in data set [6] it was 32.5 nM. Moreover, the Stability entry in data set [2] is listed as “Stable”. The EC50 entry on Mu-type opioid receptor [9] was “Not Active”. Besides, the 50% inhibitory concentration (IC50) in data set [8] worked out at 10.8 nM. The Emax result at Mu-type opioid receptor [10] was “inactive”.

As to `Oc1ccc2c3c1O[C@H]1c4ncc(-c5ccccc5)cc4C[C@@]4(OCCCc5ccncc5)[C@@H](C2)N(CC2CC2)CC[C@]314`, the Ki at Mu-type opioid receptor [1] amounted to 3.82 nM; in [5], 21.9 nM; in data set [6], 29.2 nM. The Stability entry in data set [2] is “Stable”. In addition, the EC50 result on Mu-type opioid receptor [9] is “Not Active”. For the same molecule, the IC50 in data set [8] was < 0.51 nM. In addition, at Mu-type opioid receptor [10], the Emax result was “inactive”.

On to `Oc1ccc2c3c1O[C@H]1c4ncc(-c5ccc(Cl)cc5)cc4C[C@@]4(OCCOc5ccccc5)[C@@H](C2)N(CC2CC2)CC[C@]314`, for which the figures for the Ki (on Mu-type opioid receptor [1]; in data set [5]; in [6]) were 819 nM, 21.3 nM and 172 nM, respectively. For the same molecule, the Stability entry in [2] is “Stable”. Besides, the EC50 result at Mu-type opioid receptor [9] is listed as “Not Active”. Also, the IC50 in data set [8] is 25.4 nM. In addition, on Mu-type opioid receptor [10], the Emax result was “inactive”.

In the case of `Oc1ccc2c3c1O[C@H]1c4ncc(-c5ccc(Cl)cc5)cc4C[C@@]4(OCCCc5ccncc5)[C@@H](C2)N(CC2CC2)CC[C@]314`, the inhibition constant (Ki) turned out to be 5.37 nM on Mu-type opioid receptor [1], 10.3 nM in data set [5] and 5.24 nM in data set [6]. Moreover, the Stability result in [2] was “Stable”. Further, the EC50 result on Mu-type opioid receptor [9] is “Not Active”. For the same molecule, in data set [8], the concentration for half-maximal inhibition (IC50) amounted to 4.69 nM. Also, on Mu-type opioid receptor [10], the Emax result is “inactive”.

For the molecule `Cn1cc(-c2cnc3c(c2)C[C@@]2(OCCCc4ccccc4)[C@H]4Cc5ccc(O)c6c5[C@@]2(CCN4CC2CC2)[C@H]3O6)cn1`, the figures for the inhibitory constant (Ki) (at Mu-type opioid receptor [1]; in data set [5]; in data set [6]) were 3.79 nM, 8.4 nM and 7.96 nM, respectively. The Stability entry in [2] is “Stable”. The results for the EC50 result (in data set [3]; on Mu-type opioid receptor [7]) were “Not Active” and 659 nM, respectively. The Emax entry in data set [4] is “inactive”. Moreover, the half-inhibitory concentration (IC50) in data set [8] was found to be 19.6 nM.

Turning to `Oc1ccc2c3c1O[C@H]1c4ncc(-c5cn[nH]c5)cc4C[C@@]4(OCCCc5ccccc5)[C@@H](C2)N(CC2CC2)CC[C@]314`, the Ki on Mu-type opioid receptor [1] was determined as 121 nM; in [5], 29.8 nM; in data set [6], 257 nM. Moreover, in data set [2], the Stability entry is listed as “Stable”. For the same molecule, the EC50 entry was “Not Active” in [3] and 3.29 nM on Mu-type opioid receptor [7]. Besides, in [4], the Emax entry was “inactive”. Further, in [8], the IC50 is 0.62 nM.

For the molecule `Oc1ccc2c3c1O[C@H]1c4ncc(-c5ccncn5)cc4C[C@@]4(OCCCc5ccccc5)[C@@H](C2)N(CC2CC2)CC[C@]314`, the Ki on Mu-type opioid receptor [1] came to 66.2 nM; in [5] it was 30.8 nM; in data set [6], 22.1 nM. The Stability result in data set [2] is given as “Stable”. The EC50 result was “Not Active” in [3] and > 3330 nM at Mu-type opioid receptor [7]. For the same molecule, the Emax result in [4] is “inactive”. In [8], the IC50 is 0.71 nM.

With `CN(C)c1ccccc1-c1cnc2c(c1)C[C@@]1(OCCCc3ccccc3)[C@H]3Cc4ccc(O)c5c4[C@@]1(CCN3CC1CC1)[C@H]2O5`, the Ki at Mu-type opioid receptor [1] was 6.97 nM; in [5] it was 7.96 nM; in [6], 69.6 nM. The Stability result in [2] is “Stable”. Further, the EC50 entry was “Not Active” in data set [3] and 233 nM at Mu-type opioid receptor [7]. Further, the Emax entry in data set [4] was “inactive”. For the same molecule, in data set [8], the IC50 worked out at 12.3 nM.

For the molecule `CN(C)Cc1ccccc1-c1cnc2c(c1)C[C@@]1(OCCCc3ccccc3)[C@H]3Cc4ccc(O)c5c4[C@@]1(CCN3CC1CC1)[C@H]2O5`, the Ki on Mu-type opioid receptor [1] stood at 56.4 nM; in data set [5], 22.7 nM; in data set [6], 14 nM. Also, the Stability result in data set [2] is given as “Stable”. For the same molecule, the EC50 result was “Not Active” in data set [3] and 28.9 nM at Mu-type opioid receptor [7]. Besides, the Emax result in data set [4] was “inactive”. Besides, the IC50 in [8] was found to be 11.7 nM.

Turning to `COc1cc(-c2cnc3c(c2)C[C@@]2(OCCCc4ccccc4)[C@H]4Cc5ccc(O)c6c5[C@@]2(CCN4CC2CC2)[C@H]3O6)ccn1`, the values for the Ki (at Mu-type opioid receptor [1]; in data set [5]; in data set [6]) were 10.7 nM, 6.62 nM and 3.5 nM, respectively. Also, the Stability entry in [2] is listed as “Stable”. In addition, the EC50 result in [3] was “Not Active”; on Mu-type opioid receptor [7], 2.69 nM. For the same molecule, the Emax result in data set [4] is “inactive”. For the same molecule, in data set [8], the IC50 turned out to be 0.7 nM.

Consider `Oc1ccc2c3c1O[C@H]1c4ncc(-n5cccc5)cc4C[C@@]4(OCCCc5ccccc5)[C@@H](C2)N(CC2CC2)CC[C@]314`, for which the Ki on Mu-type opioid receptor [1] was 14.7 nM; in data set [5] it was 13.8 nM; in [6] it was < 0.169 nM. The Stability result in [2] is on record as “Stable”. The figures for the EC50 entry (in data set [3]; at Mu-type opioid receptor [7]) were “Not Active” and 1.61 nM, respectively. Besides, in data set [4], the Emax result is “inactive”. Moreover, in data set [8], the half-maximal inhibitory concentration (IC50) was found to be 0.98 nM.

On to `Cc1cccc(-c2cnc3c(c2)C[C@@]2(OCCCc4ccccc4)[C@H]4Cc5ccc(O)c6c5[C@@]2(CCN4CC2CC2)[C@H]3O6)c1`, for which the Ki stood at 24.4 nM at Mu-type opioid receptor [1], 17.6 nM in [5] and 26.8 nM in [6]. Also, the Stability result in data set [2] is listed as “Stable”. The EC50 result in data set [3] is “Not Active”; at Mu-type opioid receptor [7] it was 20.6 nM. Besides, the Emax entry in [4] is “inactive”. In addition, in data set [8], the IC50 is < 0.169 nM.

As to `COc1ccccc1-c1cnc2c(c1)C[C@@]1(OCCCc3ccccc3)[C@H]3Cc4ccc(O)c5c4[C@@]1(CCN3CC1CC1)[C@H]2O5`, the Ki on Mu-type opioid receptor [1] came to 61.9 nM; in data set [5] it was 126 nM; in [6] it was 29.7 nM. Also, the Stability entry in data set [2] is recorded as “Stable”. Besides, the figures for the EC50 result (in [3]; on Mu-type opioid receptor [7]) were “Not Active” and 7.18 nM, respectively. The Emax entry in data set [4] was “inactive”. Moreover, in data set [8], the IC50 came out at 0.79 nM.

Regarding `Oc1ccc2c3c1O[C@H]1c4ncc(-c5ccncc5)cc4C[C@@]4(OCCCc5ccccc5)[C@@H](C2)N(CC2CC2)CC[C@]314`, the values for the inhibition constant (Ki) (at Mu-type opioid receptor [1]; in [5]; in data set [6]) were 47.1 nM, 15.8 nM and 6.43 nM, respectively. Further, the Stability result in [2] is “Stable”. Further, the EC50 entry in data set [3] is “Not Active”; at Mu-type opioid receptor [7], 56.3 nM. Besides, the Emax entry in data set [4] was “inactive”. Further, the IC50 in data set [8] was 18.3 nM.

For the molecule `Oc1ccc2c3c1O[C@H]1c4ncc(-c5cccnc5)cc4C[C@@]4(OCCCc5ccccc5)[C@@H](C2)N(CC2CC2)CC[C@]314`, the results for the Ki (on Mu-type opioid receptor [1]; in data set [5]; in data set [6]) were 82.7 nM, 27.8 nM and 30.6 nM, respectively. Besides, in data set [2], the Stability entry was “Stable”. Besides, the EC50 result in data set [3] was “Not Active”; at Mu-type opioid receptor [7], > 3330 nM. The Emax result in data set [4] was “inactive”. The IC50 in [8] was determined as 0.67 nM.

On to `CN(C)c1ccc(-c2cnc3c(c2)C[C@@]2(OCCCc4ccccc4)[C@H]4Cc5ccc(O)c6c5[C@@]2(CCN4CC2CC2)[C@H]3O6)cc1`, for which the Ki was 4.7 nM at Mu-type opioid receptor [1], 6.18 nM in [5] and 53.1 nM in data set [6]. The Stability result in data set [2] is recorded as “Stable”. Also, the results for the EC50 entry (in data set [3]; at Mu-type opioid receptor [7]) were “Not Active” and 2.1 nM, respectively. Also, the Emax entry in data set [4] is “inactive”. The IC50 in data set [8] worked out at 2.53 nM.
